Test results reported in patent US9528992B2, “Methods and kits for detection of active malignancy” (priority 2012, dated 2016).

Assays:
serum albumin = target: T1, serum albumin (Homo sapiens, UniProt P02768); assay: EPR spectroscopy of spin probe binding to primary and secondary binding sites of serum albumin in patient serum
T1 construct: from tissue; host or cells: blood serum of patients (whole blood centrifugation)
Description: At the condition of binding equilibrium in the mixture of sample aliquot, probe, and solvent, the binding efficiencies (BE1 and BE2) of specific (primary) and non-specific (secondary) hydrophobic binding sites of serum albumin can be calculated using the concentrations of the probe bound on the primary site of albumin (B1), on the secondary albumin site (B2) and unbound probe concentration (F), and solvent concentration (S) in the mixture. For example, can be calculated with either: 1/BE1=1/(Kb1·N1)=(Sc/S−1)·(F/B1)·P·(1−B1/(P·N1)) (2) 1/BE2=1/(Kb2·N2)=(Sc/S−1)·(F/B2)·P·(1−B2/(P·N2)) (3) where Sc=0.27 volume percent is the critical concentration of the solvent (as described above), P is the concentration of serum albumin in the sample, N1 is the number of specific or primary binding sites for the probe on the serum albumin molecule, N2 is the number of non-specific or secondary binding sites for the probe between the albumin on the serum albumin molecule. Generally, where the probe is a long chain fatty acid, N1=7 and N2 is from 6 to 8 for purified albumin. For native serum albumin of a healthy person N1 is from 4 to 7, and N2 is from 3 to 7. In native serum samples, typically the relative concentration of the spin probe bound on primary site, parameter B1/P, is about 0.5; and parameter B2/P is about 0.4. Therefore, the binding efficiencies BE1 and BE2 can be calculated (within about 10%) using the approximate formulas: 1/BE1=(Sc/S−1)·(F/B1)·P (2a) 1/BE2=(Sc/S−1)·(F/B2)·P (3a)
In Table 2, B1 and B2 are relative concentrations of the probe bound on primary and secondary sites of albumin, F is the relative concentration of unbound probe, B1/F and B2/F are parameters representing the binding efficiency of the primary and secondary binding sites of albumin, DP is discriminating parameter designed by square discriminant analysis using a set of probe binding parameters.
Blood serum was obtained by whole blood centrifugation. An aliquot of 50 μl of serum from each patient was used for each test. A spin probe of 2-(14-carboxytetradecyl)-2-ethyl-4,4-dimethyl-3-oxazolidinyloxy (purchased from Fluorochem Ltd., Derbyshire, UK) was mixed into the aliquot at a concentration of 1.64 mmol/l. A solvent, 14 μl of ethanol, was mixed into the aliquot. The molar ratio of the probe to serum albumin in the aliquot was 3.5, based on an albumin concentration in the serum of 4 g/dL. The mixture was then incubated for 10 min at 37° C. with continuous agitation in a standard shaker operated at about 5-8 Hz.
After incubation, the probe was placed into a glass capillary (e.g., Model No. RM-40, available from KABE LABORTECHNIK GmbH, Numbrecht-Elsenroth, Germany).
The EPR spectrum of the mixture was then measured, as described below. The above-described capillary was placed into the resonator of an EPR spectrometer for spectroscopic analysis. The spectroscopy parameters were as follows: microwave power 15 mW at frequency 9.52 GHz; magnetic field 0.34 T (3400 G) with scan range 12 mT (120 G); modulation amplitude 0.2 mT (2 G); data accumulation by three scans each with 4096 measured points and a sweep time 60 s. The capillary temperature was 37° C., and was controlled within +/−0.2° C.
The EPR spectrum was analyzed by computer using an EPR-spectrum simulation with nonlinear least-squares fits. The spectrum model included five components. The first two are the B and C components which represent portions of the probe that were bound differently on serum albumin. As shown here, the B and C components primarily differed by spectral parameters of A tensors (hyperfine splitting tensor): A∥(B)=30.02 Oe, A⊥(B)=9.02 Oe, A∥(C)=21.5 Oe, and A⊥(C)=13.35 Oe. Parameters of the g tensor used in the spectral calculations of these two components were: g∥(B)=1.9983, g⊥(B)=2.0019, g∥(C)=1.9990, and g⊥(C)=2.0013. The third D component represented the unbound spin probe residing free in the sample. The parameters of the D component were: A∥(D)=A⊥(D)=15.6 Oe, and g∥(D)=g⊥(D)=2.0008. […]

albumin = albumin (Homo sapiens, UniProt P02768); details: affinity of albumin for unlabeled stearic acid; cited from earlier work
Sequence of albumin (P02768 25-609, species assumed): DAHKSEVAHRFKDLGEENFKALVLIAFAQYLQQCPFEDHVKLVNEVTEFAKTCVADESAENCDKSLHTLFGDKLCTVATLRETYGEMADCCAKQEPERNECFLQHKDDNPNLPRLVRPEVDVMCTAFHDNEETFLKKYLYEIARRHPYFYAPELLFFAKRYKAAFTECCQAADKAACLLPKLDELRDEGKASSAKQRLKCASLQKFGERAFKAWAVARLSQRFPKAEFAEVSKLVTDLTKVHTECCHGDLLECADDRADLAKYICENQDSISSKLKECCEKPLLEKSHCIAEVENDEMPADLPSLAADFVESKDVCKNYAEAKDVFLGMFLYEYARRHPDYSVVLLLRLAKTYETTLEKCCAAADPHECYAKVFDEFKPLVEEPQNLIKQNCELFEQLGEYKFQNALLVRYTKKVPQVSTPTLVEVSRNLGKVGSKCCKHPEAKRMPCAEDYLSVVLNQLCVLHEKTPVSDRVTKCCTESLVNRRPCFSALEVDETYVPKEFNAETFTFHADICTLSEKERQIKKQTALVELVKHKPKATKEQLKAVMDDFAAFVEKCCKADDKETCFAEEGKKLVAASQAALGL

[1] = cancer-free persons, Mean, serum albumin 0.47 mmol, spin probe 1.64 mmol, ethanol 0.22 volume percent
[2] = patients with active malignancies, Max
[3] = patients with active malignancies, Mean
[4] = patients with active malignancies, Mean, serum albumin 0.47 mmol, spin probe 1.64 mmol, ethanol 0.22 volume percent
[5] = patients with active malignancies, Min

T1 sequence (P02768 25-609): as the sequence (P02768 25-609, species assumed) above

## CCC1(CCCCCCCCCCCCCCC(=O)O)OCC(C)(C)N1[O] (stereo not shown) [16-doxyl stearic acid, 2-(14-carboxytetradecyl)-2-ethyl-4,4-dimethyl-3-oxazolidinyloxy]
Serum albumin; cancer-free persons, Max
  B1, relative concentration of probe bound on primary sites of albumin: 0.60
  B1/F, binding efficiency of primary binding sites of albumin: 54.4
  B2, relative concentration of probe bound on secondary sites of albumin: 0.45
  B2/F, binding efficiency of secondary binding sites of albumin: 37.5
  DP, discriminating parameter: −0.3
  F, relative concentration of unbound probe: 0.044
Serum albumin; cancer-free persons, Mean
  B1/F, binding efficiency of primary binding sites of albumin: 21.8
  B2/F, binding efficiency of secondary binding sites of albumin: 15.8
  DP, discriminating parameter: −3.3
Serum albumin; [1]
  B1, relative concentration of probe bound on primary sites of albumin: 0.52
  B2, relative concentration of probe bound on secondary sites of albumin: 0.38
  F, relative concentration of unbound probe: 0.026
Serum albumin; cancer-free persons, Min
  B1, relative concentration of probe bound on primary sites of albumin: 0.40
  B1/F, binding efficiency of primary binding sites of albumin: 10.4
  B2, relative concentration of probe bound on secondary sites of albumin: 0.34
  B2/F, binding efficiency of secondary binding sites of albumin: 8.5
  DP, discriminating parameter: −5.2
  F, relative concentration of unbound probe: 0.010
Serum albumin; [2]
  B1, relative concentration of probe bound on primary sites of albumin: 0.54
  B1/F, binding efficiency of primary binding sites of albumin: 11.4
  B2, relative concentration of probe bound on secondary sites of albumin: 0.38
  B2/F, binding efficiency of secondary binding sites of albumin: 6.5
  DP, discriminating parameter: 66.0
  F, relative concentration of unbound probe: 0.155
Serum albumin; [3]
  B1/F, binding efficiency of primary binding sites of albumin: 5.9
  B2/F, binding efficiency of secondary binding sites of albumin: 4.5
  DP, discriminating parameter: 8.0
Serum albumin; [4]
  B1, relative concentration of probe bound on primary sites of albumin: 0.44
  B2, relative concentration of probe bound on secondary sites of albumin: 0.33
  F, relative concentration of unbound probe: 0.079
Serum albumin; [5]
  B1, relative concentration of probe bound on primary sites of albumin: 0.32
  B1/F, binding efficiency of primary binding sites of albumin: 2.3
  B2, relative concentration of probe bound on secondary sites of albumin: 0.23
  B2/F, binding efficiency of secondary binding sites of albumin: 1.6
  DP, discriminating parameter: 0.1
  F, relative concentration of unbound probe: 0.047

## CCCCCCCCCCCCCCCCCC(=O)O [stearic acid]
albumin
  binding constant: about 10^9 mol^−1
